Measured values from patent US20140044766A1, “METHOD FOR THE ANTIMICROBIAL PROTECTION OF AN OBJECT USING AN ANTIMICROBIAL PRESSURE-SENSITIVE ADHESIVE PLASTICS FILM” (priority 2007, published 2014).
“Also recorded” adds a separate entry of the source.

What was measured:
[1] = test system: penicillin-resistant Stapylococcus aureus; conditions: cited from earlier work
[2] = test system: Staphylococcus aureus bacteria; test: inhibition zone method, similar to Japanese standard JIS L 1902: 2002; format: cell-based
Protocol: The antimicrobial activity of the films was determined using the inhibition zone method, similar to that described in Japanese standard JIS L 1902: 2002. The film was cut into small disks with a diameter of 1 cm. They were immersed in a dish containing a nutrient medium and a known quantity of yellow colored Staphylococcus aureus bacteria. […] A protective halo was formed around the treated samples that was termed the inhibition zone, as shown in FIGS. 4-1 to 4-15 representing the results for the antimicrobial films of Examples 1 to 15. Measuring this halo allowed the intensity of the antimicrobial activity of the film to be determined.

Pseudomonas aeruginosa = conditions: cited from earlier work

Oc1cc(Cl)ccc1Oc1ccc(Cl)cc1Cl [triclosan, 5-chloro-2-(2,4-dichlorophenoxy)phenol]
effect on penicillin-resistant Stapylococcus aureus [1]: simply inhibited
antimicrobial activity in varnish-coated films (comparison in words) ([2]; agent incorporated in acrylic varnish on PVC film): more effective than Parmetol CF10 and Irgaguard H6000; also recorded: retained a high activity compared with the others
antimicrobial activity in a film incorporating the agent in its material (comparison in words) ([2]; cast PVC film, Examples 8 to 15): highest antimicrobial activity
effect on Pseudomonas aeruginosa (Pseudomonas aeruginosa): not affected
